# Test results reported in patent US10123993B2, “Cyclic ureas as inhibitors of rock” (BRISTOL-MYERS SQUIBB COMPANY, priority 2015, dated 2018).
# Counter-ions that a name gives are not always drawn.
# Target: ROCK2 (Homo sapiens, UniProt O75116)
# Assay: ROCK2 kinase inhibition assay (Caliper LABCHIP, FITC peptide substrate)
# Format: biochemical
# Settings: 5 μM ATP, 1.5 μM peptide substrate; value ranges
# In short: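 Dose-response curves gave IC50 from inhibition of peptide phosphorylation, measured by LabChip separation after EDTA stop. Reactions used 1.5 μM FITC-labelled peptide, 5 μM ATP, 20 mM HEPES pH 7.5 with MgCl2, Brij-35, DTT, and under 2% DMSO.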
# ROCK2, sequence (O75116 whole entry, species assumed): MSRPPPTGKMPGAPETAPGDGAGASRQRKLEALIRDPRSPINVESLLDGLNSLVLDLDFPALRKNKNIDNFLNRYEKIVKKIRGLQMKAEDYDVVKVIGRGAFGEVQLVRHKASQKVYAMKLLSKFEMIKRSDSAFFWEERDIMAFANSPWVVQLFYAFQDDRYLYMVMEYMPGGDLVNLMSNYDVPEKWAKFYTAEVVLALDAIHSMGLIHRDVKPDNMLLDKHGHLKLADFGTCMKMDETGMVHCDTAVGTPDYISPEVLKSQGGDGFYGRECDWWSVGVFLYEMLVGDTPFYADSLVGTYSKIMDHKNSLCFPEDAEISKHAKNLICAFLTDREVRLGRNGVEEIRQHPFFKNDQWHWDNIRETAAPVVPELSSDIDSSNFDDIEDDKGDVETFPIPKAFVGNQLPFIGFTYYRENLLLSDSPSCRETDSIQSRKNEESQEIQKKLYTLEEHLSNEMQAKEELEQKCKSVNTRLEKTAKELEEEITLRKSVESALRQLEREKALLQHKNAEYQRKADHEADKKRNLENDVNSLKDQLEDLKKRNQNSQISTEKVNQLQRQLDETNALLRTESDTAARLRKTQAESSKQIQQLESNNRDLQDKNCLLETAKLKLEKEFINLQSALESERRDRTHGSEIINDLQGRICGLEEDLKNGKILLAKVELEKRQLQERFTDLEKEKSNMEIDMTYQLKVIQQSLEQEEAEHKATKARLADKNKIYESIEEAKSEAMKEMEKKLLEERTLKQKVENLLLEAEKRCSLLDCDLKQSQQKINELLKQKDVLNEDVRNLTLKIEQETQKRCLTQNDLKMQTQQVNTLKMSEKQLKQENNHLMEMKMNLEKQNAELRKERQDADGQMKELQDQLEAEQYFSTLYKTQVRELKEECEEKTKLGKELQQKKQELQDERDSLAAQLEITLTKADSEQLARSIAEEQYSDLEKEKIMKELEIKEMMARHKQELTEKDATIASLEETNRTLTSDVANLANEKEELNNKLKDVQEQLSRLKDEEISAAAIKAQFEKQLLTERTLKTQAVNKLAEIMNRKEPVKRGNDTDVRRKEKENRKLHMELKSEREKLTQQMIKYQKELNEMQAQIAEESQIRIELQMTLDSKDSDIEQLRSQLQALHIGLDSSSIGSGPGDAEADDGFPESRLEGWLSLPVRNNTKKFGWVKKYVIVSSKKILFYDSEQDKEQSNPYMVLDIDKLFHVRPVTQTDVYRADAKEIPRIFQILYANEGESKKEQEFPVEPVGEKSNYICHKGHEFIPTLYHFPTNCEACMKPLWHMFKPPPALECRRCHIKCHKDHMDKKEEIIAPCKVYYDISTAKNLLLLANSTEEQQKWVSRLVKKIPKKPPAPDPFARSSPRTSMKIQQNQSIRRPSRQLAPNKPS
row,IC50 [nM],SMILES
1,200 to 2000,"COc1cccc(C(C)N2CCN(c3ccc(-c4cn[nH]c4)c(C)c3)C2=O)c1 (single isomer, unassigned) [Example 192, 1-(1-(3-methoxy-phenyl)-ethyl)-3-(3-methyl-4-(1H-pyrazol-4-yl)phenyl) imidazolidin-2-one]"
2,< 2,"CCC1CN(c2ccc(-c3cn[nH]c3)cc2)C(=O)N1Cc1cccc(OC)c1 (centres unmarked) [Example 175, 1-(4-(1H-pyrazol-4-yl)phenyl)-4-ethyl-3-(3-methoxy-benzyl) imidazolidin-2-one]"
3,2.1 to 20,"COc1nc(N2CCN(Cc3ccc(F)c(OCC4CC4)c3)C2=O)ccc1-c1cn[nH]c1 [Example 218, 1-(3-(cyclopropylmethoxy)-4-fluorobenzyl)-3-(6-methoxy-5-(1H-pyrazol-4-yl)pyridin-2-yl)imidazolidin-2-one]"
4,20.1 to 200,"COc1cc(F)cc(CN2CCN(c3ccc(-c4cn[nH]c4)nc3)C2=O)c1 [Example 437, 1-(6-(1H-pyrazol-4-yl)pyridin-3-yl)-3-(3-fluoro-5-methoxybenzyl)imidazolidin-2-one]"
5,2.1 to 20,"COc1cccc(CN2CCN(c3ccc(-c4cn[nH]c4)c(C)c3)C2=O)c1 [Example 273, 1-(3-methoxybenzyl)-3-(3-methyl-4-(1H-pyrazol-4-yl)phenyl)imidazolidin-2-one]"
6,20.1 to 200,"COc1nc(-n2ccn(CC3CCCCC3)c2=O)ccc1-c1cn[nH]c1 [Example 420, 1-(cyclohexylmethyl)-3-(6-methoxy-5-(1H-pyrazol-4-yl)pyridin-2-yl)-1H-imidazol-2(3H)-one]"
7,200 to 2000,"CCc1cc(N2CCN(Cc3cc(F)cc(OC)c3)C2=O)ncc1-c1cn[nH]c1 [Example 191, 1-(4-ethyl-5-(1H-pyrazol-4-yl)pyridin-2-yl)-3-(3-fluoro-5-methoxy-benzyl) imidazolidin-2-one]"
8,2.1 to 20,"COc1nc(-n2ccn(Cc3cccc(F)c3OC)c2=O)ccc1-c1cn[nH]c1 [Example 416, 1-(3-fluoro-2-methoxybenzyl)-3-(6-methoxy-5-(1H-pyrazol-4-yl)pyridin-2-yl)-1H-imidazol-2(3H)-one]"
9,20.1 to 200,"CCc1nc(-n2ccn(C(C)c3cccc(OCC4CC4)c3)c2=O)ccc1-c1cn[nH]c1 (single isomer, unassigned) [Example 372, 1-(1-(3-(cyclopropylmethoxy)phenyl)ethyl)-3-(6-ethyl-5-(1H-pyrazol-4-yl)pyridin-2-yl)-1H-imidazol-2(3H)-one]"
10,20.1 to 200,"O=C1N(Cc2cccc(F)c2)CCN1c1ccc(-c2ccncc2)cc1 [Example 56, 1-(3-fluorobenzyl)-3-(4-(pyridin-4-yl)phenyl)imidazolidin-2-one, TFA]"
11,< 2,"COc1cc(F)cc(Cn2ccn(-c3ccc(-c4cn[nH]c4)c(OC)n3)c2=O)c1 [Example 478, 1-(3-fluoro-5-methoxybenzyl)-3-(6-methoxy-5-(1H-pyrazol-4-yl)pyridin-2-yl)-1H-imidazol-2(3H)-one]"
12,20.1 to 200,"O=C1N(Cc2cccc(F)c2)CCN1c1ccc(-c2ccncc2F)cc1 [Example 49, 1-(3-fluorobenzyl)-3-(4-(3-fluoropyridin-4-yl)phenyl)imidazolidin-2-one]"
13,2.1 to 20,"COc1cc(CN2C(=O)N(c3ccc(-c4cn[nH]c4)c(C)n3)CC2(C)C)ccc1F [Example 152, 3-(4-fluoro-3-methoxy-benzyl)-4,4-dimethyl-1-(6-methyl-5-(1H-pyrazol-4-yl)pyridin-2-yl)-imidazolidin-2-one]"
14,20.1 to 200,"COc1cc(F)cc(CN2CCN(c3cc(C)c(-c4cn[nH]c4)cn3)C2=O)c1 [Example 464, 1-(3-fluoro-5-methoxybenzyl)-3-(4-methyl-5-(1H-pyrazol-4-yl)pyridin-2-yl)imidazolidin-2-one]"
15,20.1 to 200,"CCOc1cc(N2CCN(Cc3cccc(OC)c3)C2=O)ncc1-c1cn[nH]c1 [Example 473, 1-(4-ethoxy-5-(1H-pyrazol-4-yl)pyridin-2-yl)-3-(3-methoxybenzyl)imidazolidin-2-one]"
16,20.1 to 200,"O=c1n(Cc2ccccc2F)ccn1-c1ccc(-c2cn[nH]c2)cc1 [Example 69, 1-(4-(1H-pyrazol-4-yl)phenyl)-3-(2-fluorobenzyl)-1H-imidazol-2(3H)-one]"
17,20.1 to 200,"O=C1N(Cc2ccccc2)CC(CO)N1c1ccc(-c2cn[nH]c2)cc1 (centres unmarked) [Example 30, 3-(4-(1H-Pyrazol-4-yl)phenyl)-1-benzyl-4-(hydroxymethyl)imidazolidin-2-one]"
18,20.1 to 200,"O=c1n(CCc2ccccc2)ccn1-c1ccc(-c2cn[nH]c2)cc1 [Example 335, 1-(4-(1H-pyrazol-4-yl)phenyl)-3-phenethyl-1H-imidazol-2(3H)-one]"
19,200 to 2000,"COc1cccc(C(C(=O)NCC(C)C)N2CCN(c3ccc(-c4cn[nH]c4)cc3)C2=O)c1 (single isomer, unassigned) [Example 293, 2-(3-(4-(1H-pyrazol-4-yl)phenyl)-2-oxoimidazolidin-1-yl)-N-isobutyl-2-(3-methoxyphenyl)acetamide]"
20,20.1 to 200,"O=c1n(Cc2ccc(F)cc2F)ccn1-c1ccc(-c2cn[nH]c2)cc1 [Example 409, 1-(4-(1H-pyrazol-4-yl)phenyl)-3-(2,4-difluorobenzyl)-1H-imidazol-2(3H)-one]"
21,200 to 2000,"O=C1CN(c2ccc(-c3cn[nH]c3)cc2)C(=O)N1Cc1c(F)cccc1F [Example 108, 1-(4-(1H-pyrazol-4-yl)phenyl)-3-(2,6-difluorobenzyl) imidazolidine-2,4-dione]"

# Further lines, the molecule ahead of its results:
row,SMILES,IC50 [nM]
1,"COc1cccc(C(C)n2ccn(-c3ccc(-c4ccnc5[nH]ccc45)cc3)c2=O)c1 (single isomer, unassigned) [Example 325, 1-(4-(1H-Pyrrolo[2,3-b]pyridin-4-yl)phenyl)-3-(1-(3-methoxyphenyl)ethyl)-1H-imidazol-2(3H)-one]",20.1 to 200
2,"COc1nc(N2CCN(Cc3cc(F)cc(OCC4CC4)c3)C2=O)ccc1-c1cn[nH]c1 [Example 224, 1-(3-(cyclopropylmethoxy)-5-fluorobenzyl)-3-(6-methoxy-5-(1H-pyrazol-4-yl)pyridin-2-yl)imidazolidin-2-one]",2.1 to 20
3,"COc1ccc(CN2CCN(c3ccc(-c4cn[nH]c4)c(F)c3)C2=O)cc1F [Example 432, 1-(3-fluoro-4-(1H-pyrazol-4-yl)phenyl)-3-(3-fluoro-4-methoxybenzyl)imidazolidin-2-one]",20.1 to 200
4,"CCOc1cccc(C(C)N2CCN(c3ccc(-c4cn[nH]c4)c(CC)n3)C2=O)c1 (single isomer, unassigned) [Example 266, 1-(1-(3-ethoxyphenyl)ethyl)-3-(6-ethyl-5-(1H-pyrazol-4-yl)pyridin-2-yl)imidazolidin-2-one]",2.1 to 20
5,"CCc1nc(N2CCN(Cc3cc(F)cc(OC)c3)C2=O)ccc1-c1cn[nH]c1 [Example 168, 1-(6-ethyl-5-(1H-pyrazol-4-yl)pyridin-2-yl)-3-(3-fluoro-5-methoxy-benzyl) imidazolidin-2-one]",< 2
6,"CCc1nc(-n2ccn(C(C)c3ccc(F)c(OC)c3)c2=O)ccc1-c1cn[nH]c1 (single isomer, unassigned) [Example 388, 1-(6-ethyl-5-(1H-pyrazol-4-yl)pyridin-2-yl)-3-(1-(4-fluoro-3-methoxyphenyl)ethyl)-1H-imidazol-2(3H)-one]",2.1 to 20
7,"COc1cc(CN2CCN(c3ccc(-c4cn[nH]c4)c(C(F)(F)F)c3)C2=O)ccc1F [Example 283, 1-(4-(1H-pyrazol-4-yl)-3-(trifluoromethyl)phenyl)-3-(4-fluoro-3-methoxybenzyl)imidazolidin-2-one]",200 to 2000
8,"CCc1cc(N2CCN(Cc3cccc(OCC4CC4)c3)C2=O)ccc1-c1cn[nH]c1 [Example 285, 1-(3-(cyclopropylmethoxy)benzyl)-3-(3-ethyl-4-(1H-pyrazol-4-yl)phenyl)imidazolidin-2-one]",200 to 2000
9,"COc1nc(-n2ccn(Cc3cc(F)ccc3F)c2=O)ccc1-c1cn[nH]c1 [Example 415, 1-(2,5-difluorobenzyl)-3-(6-methoxy-5-(1H-pyrazol-4-yl)pyridin-2-yl)-1H-imidazol-2(3H)-one]",2.1 to 20
10,"COc1cc(F)cc(CN2CCN(c3ccc(-c4cn[nH]c4)c(OC)n3)C2=O)c1 [Example 467, 1-(3-fluoro-5-methoxybenzyl)-3-(6-methoxy-5-(1H-pyrazol-4-yl)pyridin-2-yl)imidazolidin-2-one]",< 2
11,"Cc1cc(F)ccc1Cn1ccn(-c2ccc(-c3cn[nH]c3)cc2)c1=O [Example 403, 1-(4-(1H-pyrazol-4-yl)phenyl)-3-(4-fluoro-2-methylbenzyl)-1H-imidazol-2(3H)-one]",20.1 to 200
12,"O=C1CN(c2ccc(-c3cn[nH]c3)cc2)C(=O)N1Cc1ccccc1 [Example 110, 1-(4-(1H-pyrazol-4-yl)phenyl)-3-benzyl-imidazolidine-2,4-dione]",20.1 to 200
13,"COc1cc(CN2C(=O)N(c3ccc(-c4cn[nH]c4)cc3)C[C@H]2CO)ccc1F (single isomer, unassigned) [Example 131]",2.1 to 20
14,"CCc1nc(N2CCN(C(C)c3cccc(OC)c3)C2=O)ccc1-c1cn[nH]c1 (single isomer, unassigned) [Example 173, 1-(6-ethyl-5-(1H-pyrazol-4-yl)pyridin-2-yl)-3-(1-(3-methoxy-phenyl)ethyl) imidazolidin-2-one]",< 2
15,"COc1cccc(C(CO)n2ccn(-c3ccc(-c4cn[nH]c4)cc3)c2=O)c1 (single isomer, unassigned) [Example 323, 1-(4-(1H-Pyrazol-4-yl)phenyl)-3-(2-hydroxy-1-(3-methoxyphenyl)ethyl)-1H-imidazol-2(3H)-one]",200 to 2000
16,"COc1cc(-c2cn[nH]c2)ccc1N1CCN(Cc2ccccc2)C1=O [Example 12, 1-Benzyl-3-(2-methoxy-4-(1H-pyrazol-4-yl)phenyl)imidazolidin-2-one]",200 to 2000
17,"CCc1nc(-n2ccn(Cc3ccc(F)c(OC)c3)c2=O)ccc1-c1cn[nH]c1 [Example 171, 1-(6-ethyl-5-(1H-pyrazol-4-yl)pyridin-2-yl)-3-(4-fIuoro-3-methoxy-benzyl)-1H-imidazol-2(3H)-one]",20.1 to 200
